From ChEMBL document CHEMBL4130465, “Berchemiosides A-C, 2-Acetoxy-ω-phenylpentaene Fatty Acid Triglycosides from the Unripe Fruits of Berchemia berchemiifolia” (J Nat Prod, 2017)
pIC50: −log10 of the molar value. Activity calls are given as the source filed them. The rule behind the calls is not given here.

Assays:
HCT-116 [1] = assay: Cytotoxicity against human HCT116 cells up to 100 uM after 48 hrs by MTT assay; format: functional, cell-based
[2] = target: Xanthine dehydrogenase/oxidase (Homo sapiens, UniProt P47989); assay: Inhibition of xanthine oxidase (unknown origin) using xanthine as substrate pretreated for 10 mins followed by substrate addition measured every 2 mins for 6 mins; conditions: for inhibition (INH): human, 0.1 h
HCT-116 [3] = assay: Cytotoxicity against human HCT116 cells after 48 hrs by MTT assay; format: functional, cell-based; conditions: HCT-116, 48 h

Chain of Xanthine dehydrogenase/oxidase (P47989 whole entry): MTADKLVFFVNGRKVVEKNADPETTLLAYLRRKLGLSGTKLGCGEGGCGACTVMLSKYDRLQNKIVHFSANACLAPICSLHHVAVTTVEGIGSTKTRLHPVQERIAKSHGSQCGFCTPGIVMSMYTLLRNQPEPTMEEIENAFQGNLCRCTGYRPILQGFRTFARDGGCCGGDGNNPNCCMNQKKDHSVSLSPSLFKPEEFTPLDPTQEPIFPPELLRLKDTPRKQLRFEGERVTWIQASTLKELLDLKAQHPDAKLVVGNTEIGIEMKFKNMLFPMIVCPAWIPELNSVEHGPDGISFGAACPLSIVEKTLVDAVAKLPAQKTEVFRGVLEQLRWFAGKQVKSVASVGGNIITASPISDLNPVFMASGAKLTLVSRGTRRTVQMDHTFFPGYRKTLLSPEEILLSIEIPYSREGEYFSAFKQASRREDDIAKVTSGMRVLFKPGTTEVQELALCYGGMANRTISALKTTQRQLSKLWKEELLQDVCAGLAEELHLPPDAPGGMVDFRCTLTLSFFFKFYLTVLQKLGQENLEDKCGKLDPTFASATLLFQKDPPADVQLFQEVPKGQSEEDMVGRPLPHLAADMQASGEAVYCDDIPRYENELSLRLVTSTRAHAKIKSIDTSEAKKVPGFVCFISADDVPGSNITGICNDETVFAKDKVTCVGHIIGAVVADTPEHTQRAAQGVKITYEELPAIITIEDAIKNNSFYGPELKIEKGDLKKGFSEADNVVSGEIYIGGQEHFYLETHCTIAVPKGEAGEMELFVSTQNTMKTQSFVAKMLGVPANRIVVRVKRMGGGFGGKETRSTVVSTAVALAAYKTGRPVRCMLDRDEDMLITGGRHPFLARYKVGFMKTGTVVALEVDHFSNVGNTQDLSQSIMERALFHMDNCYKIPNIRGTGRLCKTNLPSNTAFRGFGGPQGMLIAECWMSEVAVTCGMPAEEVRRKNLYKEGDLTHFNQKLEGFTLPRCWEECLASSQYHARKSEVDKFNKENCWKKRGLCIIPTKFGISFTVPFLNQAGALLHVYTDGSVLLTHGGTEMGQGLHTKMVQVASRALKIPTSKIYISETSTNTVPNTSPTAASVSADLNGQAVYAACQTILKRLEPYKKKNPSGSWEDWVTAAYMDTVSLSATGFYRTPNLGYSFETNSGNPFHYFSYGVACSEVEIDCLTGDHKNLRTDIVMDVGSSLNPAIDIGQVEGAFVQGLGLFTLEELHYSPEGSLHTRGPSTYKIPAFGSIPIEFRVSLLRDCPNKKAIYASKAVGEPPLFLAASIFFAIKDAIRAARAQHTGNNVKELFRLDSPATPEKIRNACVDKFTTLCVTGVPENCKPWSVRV

Row | Compound | Activity (HCT-116 [1]) | inhibition (INH) [2] | also measured
1 | CC(=O)O[C@H](CCC/C=C/C=C/C=C/C=C/C=C/c1ccc(O[C@@H]2O[C@H](CO[C@@H]3O[C@@H](C)[C@H](O)[C@@H](O[C@@H]4O[C@H](COC(=O)/C=C/C=C/c5ccccc5)[C@@H](O)[C@H](O)[C@H]4O)[C@H]3O)[C@@H](O)[C@H](O)[C@H]2O)cc1)C(=O)O | inactive |  | 
2 | O=C1C[C@H](c2ccc(O)c(O)c2)Oc2cc(O)cc(O[C@@H]3O[C@H](CO)[C@@H](O)[C@H](O)[C@H]3O[C@@H]3O[C@H](CO)[C@@H](O)[C@H](O)[C@H]3O)c21 |  | Not Active | 
3 | O=c1c(O[C@@H]2O[C@H](CO)[C@@H](O)[C@H](O)[C@H]2O[C@@H]2O[C@H](CO)[C@@H](O)[C@H](O)[C@H]2O)c(-c2ccc(O)c(O)c2)oc2cc(O)cc(O)c12 |  | Not Active | 
4 | CC(=O)O[C@H](CCC/C=C/C=C/C=C/C=C/C=C/c1ccc(O[C@@H]2O[C@H](CO[C@@H]3O[C@@H](C)[C@H](O)[C@@H](O[C@@H]4O[C@H](COC(=O)/C=C/c5ccccc5)[C@@H](O)[C@H](O)[C@H]4O)[C@H]3O)[C@@H](O)[C@H](O)[C@H]2O)cc1)C(=O)O | inactive |  | 
5 | C[C@@H]1O[C@@H](OC[C@H]2O[C@@H](Oc3ccc(C=O)cc3)[C@H](O)[C@@H](O)[C@@H]2O)[C@H](O)[C@H](O[C@@H]2O[C@H](COC(=O)/C=C/c3ccccc3)[C@@H](O)[C@H](O)[C@H]2O)[C@H]1O | inactive |  | 
6 | COc1cc2oc(-c3ccc(O)cc3)cc(=O)c2c(O)c1[C@@H]1O[C@H](CO)[C@@H](O)[C@H](O)[C@H]1O [SWERTISIN] |  | Not Active | 
7 | CC(=O)O[C@H](CCC/C=C/C=C/C=C\C=C/C=C/c1ccc(O[C@@H]2O[C@H](CO[C@@H]3O[C@@H](C)[C@H](O)[C@@H](O[C@@H]4O[C@H](CO)[C@@H](O)[C@H](O)[C@H]4O)[C@H]3O)[C@@H](O)[C@H](O)[C@H]2O)cc1)C(=O)O | inactive |  | 
8 | O=C1C[C@H](c2ccc(O)cc2)Oc2cc(O)cc(O[C@@H]3O[C@H](CO)[C@@H](O)[C@H](O)[C@H]3O[C@@H]3O[C@H](CO)[C@@H](O)[C@H](O)[C@H]3O)c21 |  |  | pIC50 [2]: 4.02
9 | COc1cc2oc(-c3ccc(O)c(O)c3)cc(=O)c2c(O)c1[C@@H]1O[C@H](CO)[C@@H](O)[C@H](O)[C@H]1O |  | Not Active | 
10 | O=C1C[C@@H](c2ccc(O)c(O)c2)Oc2cc(O)cc(O[C@@H]3O[C@H](CO)[C@@H](O)[C@H](O)[C@H]3O[C@@H]3O[C@H](CO)[C@@H](O)[C@H](O)[C@H]3O)c21 |  | Not Active | 
11 | CC(=O)O[C@@]12CO[C@@H]1C[C@H](O)[C@@]1(C)C(=O)[C@H](O)C3=C(C)[C@@H](OC(=O)[C@H](O)[C@@H](NC(=O)OC(C)(C)C)c4ccccc4)C[C@@](O)([C@@H](OC(=O)c4ccccc4)[C@H]21)C3(C)C [DOCETAXEL ANHYDROUS] |  |  | pIC50 (HCT-116 [3]): 6.89
